Source: ChEMBL document CHEMBL1687730, “New high-throughput screening assay to reveal similarities and differences in inhibitory sensitivities of multidrug ATP-binding cassette transporters” (Antimicrob Agents Chemother, 2009)

Key:
[1] = target: Pleiotropic ABC efflux transporter of multiple drugs (Saccharomyces cerevisiae S288c, UniProt P33302); experiment: Inhibition of Pdr5p-mediated rhodamine 6G transport in Saccharomyces cerevisiae MKPDR5h plasma membrane by spectrofluorometric assay
[2] = target: Snq2p (Saccharomyces cerevisiae (strain Lalvin EC1118 / Prise de mousse)(Baker's yeast)) (UniProt C8Z4T0); experiment: Inhibition of Saccharomyces cerevisiae MKSNQ2h multidrug transporter Snq2p assessed as concentration required to threefold increase in rate of fluorescence signal relative to absence of inhibitor by fluorescein diacetate based high-throughput screening spectrofluorometric assay
Snq2p (Saccharomyces cerevisiae (strain Lalvin EC1118 / Prise de mousse)(Baker's yeast)), sequence (C8Z4T0 as listed by the source): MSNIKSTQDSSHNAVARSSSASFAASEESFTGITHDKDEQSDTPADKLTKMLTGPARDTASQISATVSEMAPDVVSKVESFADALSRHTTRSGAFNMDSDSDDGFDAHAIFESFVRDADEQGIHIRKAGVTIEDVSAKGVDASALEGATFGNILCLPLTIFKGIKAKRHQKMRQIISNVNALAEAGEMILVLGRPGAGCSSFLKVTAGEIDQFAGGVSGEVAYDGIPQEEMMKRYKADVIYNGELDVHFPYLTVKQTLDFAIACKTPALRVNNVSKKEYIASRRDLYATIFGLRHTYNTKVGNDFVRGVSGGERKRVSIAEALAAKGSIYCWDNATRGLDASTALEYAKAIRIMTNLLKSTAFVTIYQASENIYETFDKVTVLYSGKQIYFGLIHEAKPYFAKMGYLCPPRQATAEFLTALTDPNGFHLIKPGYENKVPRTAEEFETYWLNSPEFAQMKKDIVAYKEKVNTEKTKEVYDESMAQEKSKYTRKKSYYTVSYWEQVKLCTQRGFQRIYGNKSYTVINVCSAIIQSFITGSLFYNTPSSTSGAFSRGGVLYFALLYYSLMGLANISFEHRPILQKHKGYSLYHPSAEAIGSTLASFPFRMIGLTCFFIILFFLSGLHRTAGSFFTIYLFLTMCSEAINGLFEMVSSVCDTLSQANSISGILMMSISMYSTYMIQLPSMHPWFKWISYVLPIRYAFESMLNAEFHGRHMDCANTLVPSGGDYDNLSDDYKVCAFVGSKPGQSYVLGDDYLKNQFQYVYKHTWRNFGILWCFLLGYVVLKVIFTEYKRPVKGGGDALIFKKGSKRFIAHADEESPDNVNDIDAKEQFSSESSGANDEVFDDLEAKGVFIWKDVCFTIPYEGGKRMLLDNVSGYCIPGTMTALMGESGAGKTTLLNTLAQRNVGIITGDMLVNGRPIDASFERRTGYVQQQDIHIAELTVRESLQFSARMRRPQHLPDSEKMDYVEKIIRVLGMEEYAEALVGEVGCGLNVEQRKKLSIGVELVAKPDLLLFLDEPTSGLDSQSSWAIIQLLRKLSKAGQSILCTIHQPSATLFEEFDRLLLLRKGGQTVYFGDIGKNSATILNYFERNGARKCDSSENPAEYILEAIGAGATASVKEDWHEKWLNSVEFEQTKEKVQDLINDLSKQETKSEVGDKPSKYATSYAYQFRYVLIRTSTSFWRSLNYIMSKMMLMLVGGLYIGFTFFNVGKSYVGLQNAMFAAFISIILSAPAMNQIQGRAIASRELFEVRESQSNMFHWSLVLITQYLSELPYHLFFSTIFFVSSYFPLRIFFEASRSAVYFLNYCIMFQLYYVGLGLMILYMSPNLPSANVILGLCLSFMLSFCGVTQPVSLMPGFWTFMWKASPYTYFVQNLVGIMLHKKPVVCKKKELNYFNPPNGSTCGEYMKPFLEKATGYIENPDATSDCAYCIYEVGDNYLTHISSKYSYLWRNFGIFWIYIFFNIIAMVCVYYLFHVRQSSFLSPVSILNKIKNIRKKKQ

Saccharomyces cerevisiae [3] = experiment: Inhibition of Saccharomyces cerevisiae MKCDR1h multidrug transporter Cdr1p assessed as potentiation of ketoconazole-induced antifungal activity by Checkerboard assay
Saccharomyces cerevisiae [4] = experiment: Inhibition of Saccharomyces cerevisiae MKCDR1h multidrug transporter Cdr1p assessed as concentration required to threefold increase in rate of fluorescence signal relative to absence of inhibitor by fluorescein diacetate based high-throughput screening spectrofluorometric assay
[5] = target: Pleiotropic ABC efflux transporter of multiple drugs (Saccharomyces cerevisiae S288c) (UniProt P33302); experiment: Inhibition of Saccharomyces cerevisiae MKPDR5h multidrug transporter Pdr5p assessed as concentration required to threefold increase in rate of fluorescence signal relative to absence of inhibitor by fluorescein diacetate based high-throughput screening spectrofluorometric assay
Pleiotropic ABC efflux transporter of multiple drugs (Saccharomyces cerevisiae S288c), sequence (P33302 whole entry): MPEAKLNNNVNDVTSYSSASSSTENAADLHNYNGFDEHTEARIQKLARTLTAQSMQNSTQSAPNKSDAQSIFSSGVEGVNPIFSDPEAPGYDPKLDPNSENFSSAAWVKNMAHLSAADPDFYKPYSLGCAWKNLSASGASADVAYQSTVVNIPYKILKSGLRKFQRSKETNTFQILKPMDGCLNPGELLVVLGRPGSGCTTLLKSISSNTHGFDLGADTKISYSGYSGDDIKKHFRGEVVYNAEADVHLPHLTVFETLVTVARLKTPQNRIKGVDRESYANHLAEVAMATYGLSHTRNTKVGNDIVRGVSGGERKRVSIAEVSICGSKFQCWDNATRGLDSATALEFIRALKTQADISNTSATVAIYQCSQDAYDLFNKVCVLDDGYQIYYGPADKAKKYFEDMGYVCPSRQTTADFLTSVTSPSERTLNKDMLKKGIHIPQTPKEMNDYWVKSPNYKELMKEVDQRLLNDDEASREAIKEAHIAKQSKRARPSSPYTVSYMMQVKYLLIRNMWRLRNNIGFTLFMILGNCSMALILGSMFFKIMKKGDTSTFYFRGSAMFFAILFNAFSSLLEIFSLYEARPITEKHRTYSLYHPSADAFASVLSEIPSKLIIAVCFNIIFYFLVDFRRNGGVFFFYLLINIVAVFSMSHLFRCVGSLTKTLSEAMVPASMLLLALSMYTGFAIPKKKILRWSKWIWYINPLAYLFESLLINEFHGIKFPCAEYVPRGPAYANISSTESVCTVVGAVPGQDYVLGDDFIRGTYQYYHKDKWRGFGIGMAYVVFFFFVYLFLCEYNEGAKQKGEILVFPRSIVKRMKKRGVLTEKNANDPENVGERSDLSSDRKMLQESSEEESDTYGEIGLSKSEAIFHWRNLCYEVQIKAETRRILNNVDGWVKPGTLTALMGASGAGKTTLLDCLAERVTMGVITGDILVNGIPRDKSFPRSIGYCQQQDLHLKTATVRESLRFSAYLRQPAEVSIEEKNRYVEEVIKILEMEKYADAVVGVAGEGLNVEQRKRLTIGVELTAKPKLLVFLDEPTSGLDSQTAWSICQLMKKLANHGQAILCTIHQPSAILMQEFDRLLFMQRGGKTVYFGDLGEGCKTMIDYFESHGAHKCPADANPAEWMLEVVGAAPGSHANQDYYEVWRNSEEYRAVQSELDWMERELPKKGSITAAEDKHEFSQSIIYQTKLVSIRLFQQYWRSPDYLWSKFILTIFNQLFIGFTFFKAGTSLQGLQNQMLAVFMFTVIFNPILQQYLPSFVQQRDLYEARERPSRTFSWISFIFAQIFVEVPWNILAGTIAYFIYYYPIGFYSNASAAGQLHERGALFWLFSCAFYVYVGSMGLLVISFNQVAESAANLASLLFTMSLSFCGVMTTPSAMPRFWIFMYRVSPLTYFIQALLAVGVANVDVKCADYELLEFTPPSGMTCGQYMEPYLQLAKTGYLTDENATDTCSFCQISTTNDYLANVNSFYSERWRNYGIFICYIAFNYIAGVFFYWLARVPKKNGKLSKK

Pleiotropic ABC efflux transporter of multiple drugs, sequence (P33302 whole entry): as above

Row | Structure (SMILES) | IC50 [1] | INH [2] | fractional inhibitory concentration index (FICI) (Saccharomyces cerevisiae [3]) | INH (Saccharomyces cerevisiae [4]) | INH [5]
1 | NCCCCN1c2ccccc2Sc2ccc(Cl)cc21 | 0.7 µM | 2.1 µM | 0.06 | 1.9 µM | 1.9 µM
2 | NCCCCN1c2ccccc2Sc2ccc(C(F)(F)F)cc21 | 1.3 µM | 4.6 µM | – | 4.6 µM | 3.7 µM
3 | NCCCCN1c2ccccc2Sc2ccccc21 | 3.1 µM | 13.5 µM | – | 29 µM | 7 µM
4 | NCCCN1c2ccccc2Sc2ccc(C(F)(F)F)cc21 | 6.4 µM | 6.9 µM | – | 6.5 µM | 7.7 µM
5 | NCCCN1c2ccccc2Sc2ccccc21 | 7.4 µM | 12.4 µM | – | 36 µM | 14.7 µM
6 | CSc1ccc2c(c1)N(CCC1CCCCN1C)c1ccccc1S2 (stereo not drawn) | – | 19.4 µM | – | 26 µM | 17 µM
7 | O=C(O)CCCCCCNC1c2ccccc2CCc2ccccc21 [AMINEPTINE] | > 400 µM | > 433 µM | – | > 433 µM | > 433 µM
8 | CN(C)CCCN1c2ccccc2Sc2ccc(Cl)cc21 [CHLORPROMAZINE] | 4.5 µM | 32 µM | – | 57 µM | 57 µM
9 | CN(C)CC/C=C1/c2ccccc2Sc2ccc(Cl)cc21 [CHLORPROTHIXENE] | 5.1 µM | 22 µM | – | 53 µM | 26 µM
10 | COc1ccc2c(c1)N(C[C@@H](C)CN(C)C)c1ccccc1S2 [DEXTROMEPROMAZINE] | 9 µM | 100 µM | – | 273 µM | 101 µM
11 | CCN(CC)CCN1c2ccccc2Sc2ccccc21 [DIETHAZINE] | 10.3 µM | 239 µM | – | 317 µM | 331 µM
12 | OCCN1CCN(CCCN2c3ccccc3Sc3ccc(C(F)(F)F)cc32)CC1 [FLUPHENAZINE] | 1.7 µM | 8.8 µM | 0.09 | 12.4 µM | 5.4 µM
13 | CN(C)CCCN1c2ccccc2CCc2ccccc21 [IMIPRAMINE] | 22 µM | 198 µM | – | > 433 µM | 166 µM
14 | COc1ccc2c(c1)N(C[C@H](C)CN(C)C)c1ccccc1S2 [LEVOMEPROMAZINE] | 9.6 µM | 100 µM | – | 252 µM | 128 µM
15 | NCCCN1c2ccccc2Sc2ccc(Cl)cc21 [NOR2-CHLORPROMAZINE] | 3.2 µM | 5.8 µM | – | 4.3 µM | 4.2 µM
16 | OCCN1CCN(CCCN2c3ccccc3Sc3ccc(Cl)cc32)CC1 [PERPHENAZINE] | 1.4 µM | 13.1 µM | – | 17.2 µM | 6.4 µM
17 | c1ccc2c(c1)Nc1ccccc1S2 [PHENOTHIAZINE] | > 400 µM | 90 µM | – | > 433 µM | > 433 µM
18 | CN1CCN(CCCN2c3ccccc3Sc3ccc(Cl)cc32)CC1 [PROCHLORPERAZINE] | 1.7 µM | 6.6 µM | – | 11 µM | 7.2 µM
19 | CN(C)CCCN1c2ccccc2Sc2ccccc21 [PROMAZINE] | 11.3 µM | 131 µM | – | 278 µM | 96 µM
20 | CC(CN1c2ccccc2Sc2ccccc21)N(C)C (stereo not drawn) [PROMETHAZINE] | 17.7 µM | 117 µM | – | 275 µM | 285 µM
21 | CCSc1ccc2c(c1)N(CCCN1CCN(C)CC1)c1ccccc1S2 [THIETHYLPERAZINE] | 2.3 µM | 3.2 µM | – | 9.4 µM | 5.6 µM
22 | CN1CCN(CCCN2c3ccccc3Sc3ccc(C(F)(F)F)cc32)CC1 [TRIFLUOPERAZINE] | 1.4 µM | 6.9 µM | – | 9.8 µM | 8.3 µM
23 | CN(C)CCCN1c2ccccc2Sc2ccc(C(F)(F)F)cc21 [TRIFLUPROMAZINE] | 4.9 µM | 47 µM | – | 49 µM | 47 µM
